Results: patent publication US20040254162A1, “Oxazolidinone derivatives as antimicrobials” (priority 2001, published 2004)
In brackets after ≈: the same amount, converted by molar mass. Several values for one entry are separate records, joined by “and”; a condition that tells them apart may be missing. Equal entries are not always repeated.

Assays:
MRSA 562 [1] = test: In vivo activity against MRSA 562 (ED50); design: species or system Methicillin Resistant Staphylococcus aureus; details: PO; MRSA 562 infection
S. aureus ATCC 25923 = test: MIC, agar incorporation method; details: agar incorporation
MRSA 15187 = test: MIC, agar incorporation method; details: agar incorporation
MRSA 33 = test: MIC, agar incorporation method; details: agar incorporation
Ent. faecalis ATCC 29212 = test: MIC, agar incorporation method; details: agar incorporation
VRE 6A (Ent. faecium 6A) = test: MIC, agar incorporation method; details: agar incorporation
Strep. pyog. ATCC 19615 = test: MIC, agar incorporation method; details: agar incorporation
Strep. pne. ATCC 6303 = test: MIC, agar incorporation method; details: agar incorporation
S. pneum AB 34 = test: MIC, agar incorporation method; details: agar incorporation
MRSA 562 [2] = test: MIC, agar incorporation method; details: for MIC: MRSA 562, Table 5; for MIC MRSA 562: agar incorporation, Table 1
G +ve bacteria = test: Summary of in vitro activity (MIC); details: for MIC50 / MIC90: G +ve, Number 49; for Geometric Mean of in vitro activity (MIC): Gram + ve
S. aureus = test: Summary of in vitro activity (MIC); details: S. aureus; for MIC50 / MIC90: Number 8
E. faecalis = test: Summary of in vitro activity (MIC); details: E. faecalis; for MIC50 / MIC90: Number 7
S. pneumoniae = test: Summary of in vitro activity (MIC); details: S. pneumoniae; for MIC50 / MIC90: Number 19

MIC S. aureus 25923 (S. aureus ATCC 25923) | MIC MRSA 15187 (MRSA 15187) | MIC MRSA 33 (MRSA 33) | MIC E. faecalis 29212 (Ent. faecalis ATCC 29212) | MIC VRE 6A (VRE 6A (Ent. faecium 6A)) | MIC S. pyogenes 19615 (Strep. pyog. ATCC 19615) | MIC S. pneum 6303 (Strep. pne. ATCC 6303) | MIC S. pneum AB 34 (S. pneum AB 34) | MIC (MRSA 562 [2]) | MIC MRSA 562 (MRSA 562 [2]) | SMILES | ED50 (mg/kg body weight) PO (MRSA 562 [1]) | other results
8 µg/mL (≈ 15.5 µM) | 8 µg/mL (≈ 15.5 µM) | 4 µg/mL (≈ 7.73 µM) | 2 µg/mL (≈ 3.86 µM) | 8 µg/mL (≈ 15.5 µM) | 0.5 µg/mL (≈ 0.966 µM) | 0.5 µg/mL (≈ 0.966 µM) | 0.5 µg/mL (≈ 0.966 µM) |  | 8 µg/mL (≈ 15.5 µM) | CC(=O)NC[C@H]1CN(c2ccc(N3CC4C(CN(C)Cc5ccc([N+](=O)[O-])s5)C4C3)c(F)c2)C(=O)O1 (stereo partly drawn) [Compound No. 39, (S)-N-[[3-[3-Fluoro[4-[3-(1α,5α,6α)-6-[N-(5-nitro-2-thienylmethyl)-N-methyl]-amino-methyl]-3-azabicyclo-[3.1.0]hexane]phenyl]-2-oxo-5-oxazolidinyl]methyl]acetamide] |  | 
1 µg/mL (≈ 2.04 µM) | 1 µg/mL (≈ 2.04 µM) | 1 µg/mL (≈ 2.04 µM) | 0.5 µg/mL (≈ 1.02 µM) | 0.25 µg/mL (≈ 0.511 µM) | 0.125 µg/mL (≈ 0.255 µM) | 0.5 µg/mL (≈ 1.02 µM) | 2 µg/mL (≈ 4.09 µM) | 0.5 µg/mL (≈ 1.02 µM) | 0.5 µg/mL (≈ 1.02 µM) | CC(=O)NC[C@H]1CN(c2ccc(N3CCC(N(C)Cc4ccc([N+](=O)[O-])o4)CC3)c(F)c2)C(=O)O1 [Compound No. 50, (S)-N-[[3-[4-[4-(N-methyl-N-2-furyl(5-nitro)methyl)aminopiperidine-1-yl]-3-fluorophenyl]-2-oxo-oxazolidin-5-yl]methyl]acetamide] |  | MIC50 (G +ve bacteria): 1 µg/mL (≈ 2.04 µM); MIC90 (G +ve bacteria): 2 µg/mL (≈ 4.09 µM); Geometric Mean of in vitro activity (MIC) (G +ve bacteria): 0.72 µg/mL; Geometric Mean of in vitro activity (MIC) (S. aureus): 1 µg/mL; MIC50 (S. aureus): 1 µg/mL (≈ 2.04 µM); MIC90 (S. aureus): 2 µg/mL (≈ 4.09 µM); Geometric Mean of in vitro activity (MIC) (E. faecalis): 0.42 µg/mL; MIC50 (E. faecalis): 0.5 µg/mL (≈ 1.02 µM); MIC90 (E. faecalis): 1 µg/mL (≈ 2.04 µM); Geometric Mean of in vitro activity (MIC) (S. pneumoniae): 1.41 µg/mL; MIC50 (S. pneumoniae): 1 µg/mL (≈ 2.04 µM); MIC90 (S. pneumoniae): 2 µg/mL (≈ 4.09 µM)
2 µg/mL (≈ 4.36 µM) | 2 µg/mL (≈ 4.36 µM) | 2 µg/mL (≈ 4.36 µM) | 8 µg/mL (≈ 17.4 µM) | 8 µg/mL (≈ 17.4 µM) | 8 µg/mL (≈ 17.4 µM) | 8 µg/mL (≈ 17.4 µM) | 8 µg/mL (≈ 17.4 µM) |  | 1 µg/mL (≈ 2.18 µM) | CC(=O)NC[C@H]1CN(c2ccc(N3CCN(Cc4ccc(C=NN)o4)CC3)c(F)c2)C(=O)O1 [Compound No. 62, (S)-N-[[3-[3-Fluoro-4[N-1-[4-{2-furyl-(5-hydrazone)-methyl}]-piperazinyl]-phenyl]-2-oxo-5-oxazolidinyl]-methyl]acetamide] |  | 
2 µg/mL (≈ 3.98 µM) | 2 µg/mL (≈ 3.98 µM) | 2 µg/mL (≈ 3.98 µM) | 16 µg/mL (≈ 31.8 µM) | 16 µg/mL (≈ 31.8 µM) | 8 µg/mL (≈ 15.9 µM) | 8 µg/mL (≈ 15.9 µM) | 8 µg/mL (≈ 15.9 µM) |  | 2 µg/mL (≈ 3.98 µM) | CC(=O)NC[C@H]1CN(c2ccc(N3CCN(Cc4ccc(C5OCCCO5)o4)CC3)c(F)c2)C(=O)O1 [Compound No. 66] |  | 
 |  |  |  |  |  |  |  | 2 µg/mL (≈ 4.35 µM) |  | CC(=O)NC[C@H]1CN(c2ccc(N3CCN(Cc4ccc(NC=O)o4)CC3)c(F)c2)C(=O)O1 [Compound No. 67] | >25 mg/kg body weight | 
8 µg/mL and 4 µg/mL | 8 µg/mL and 4 µg/mL | 8 µg/mL and 4 µg/mL | 8 µg/mL and 4 µg/mL | 8 µg/mL and 4 µg/mL | 4 µg/mL and 2 µg/mL | 4 µg/mL (≈ 8.22 µM) | 2 µg/mL and 4 µg/mL | 4 µg/mL (≈ 8.22 µM) |  | CC(=O)NC[C@H]1CN(c2ccc(N3CC4C(C3)C4N(C)C(=O)Cc3cccs3)c(F)c2)C(=O)O1 (stereo partly drawn) [Compound No. 71, (S)-N-[[3-[3-Fluoro[4-[3-(1α,5α,6α)-6-[N-(2-thiopheneacetyl)-N-methyl]amino]-3-azabicyclo-[3.1.0]hexane]phenyl]-2-oxo-5-oxazolidinyl]methyl]acetamide] | >25 mg/kg body weight | 

The next lines start with the molecule.

SMILES | MIC S. aureus 25923 (S. aureus ATCC 25923) | MIC MRSA 15187 (MRSA 15187) | MIC MRSA 33 (MRSA 33) | MIC E. faecalis 29212 (Ent. faecalis ATCC 29212) | MIC VRE 6A (VRE 6A (Ent. faecium 6A)) | MIC S. pyogenes 19615 (Strep. pyog. ATCC 19615) | MIC S. pneum 6303 (Strep. pne. ATCC 6303) | MIC S. pneum AB 34 (S. pneum AB 34) | MIC (MRSA 562 [2]) | MIC MRSA 562 (MRSA 562 [2]) | ED50 (mg/kg body weight) PO (MRSA 562 [1]) | other results
CC(=O)NC[C@H]1CN(c2ccc(N3CCN(C(=O)c4ccc(Br)o4)CC3)c(F)c2)C(=O)O1 [Compound No. 04] | 2 µg/mL (≈ 3.93 µM) | 2 µg/mL (≈ 3.93 µM) | 2 µg/mL (≈ 3.93 µM) | 2 µg/mL (≈ 3.93 µM) | 1 µg/mL (≈ 1.96 µM) | 2 µg/mL (≈ 3.93 µM) | 1 µg/mL (≈ 1.96 µM) | 1 µg/mL (≈ 1.96 µM) |  |  | >25 mg/kg body weight | 
CC(=O)NC[C@H]1CN(c2ccc(N3CCN(C(=O)C(=O)c4cccs4)CC3)c(F)c2)C(=O)O1 [Compound No. 07, (S)-N[[3-[3-Fluoro-4-[N-1[4-{2-(2-thienyl)dicarbonyl}]piperazinyl]phenyl]2-oxo-5-oxazolidinyl]methyl]acetamide] | 2 µg/mL (≈ 4.21 µM) | 2 µg/mL (≈ 4.21 µM) | 2 µg/mL (≈ 4.21 µM) | 2 µg/mL (≈ 4.21 µM) | 2 µg/mL (≈ 4.21 µM) | 0.5 µg/mL (≈ 1.05 µM) | 2 µg/mL (≈ 4.21 µM) | 2 µg/mL (≈ 4.21 µM) | 2 µg/mL (≈ 4.21 µM) | 2 µg/mL (≈ 4.21 µM) | >25 mg/kg body weight | 
CC(=O)NC[C@H]1CN(c2ccc(N3CCN(Cc4ccc(Br)s4)CC3)c(F)c2)C(=O)O1 [Compound No. 27] | 2 µg/mL (≈ 3.91 µM) | 2 µg/mL (≈ 3.91 µM) | 2 µg/mL (≈ 3.91 µM) | 2 µg/mL (≈ 3.91 µM) | 4 µg/mL (≈ 7.82 µM) | 1 µg/mL (≈ 1.96 µM) | 2 µg/mL (≈ 3.91 µM) | 0.5 µg/mL (≈ 0.978 µM) |  | 2 µg/mL (≈ 3.91 µM) |  | 
CC(=O)NC[C@H]1CN(c2ccc(N3C[C@@H]4[C@H](C3)[C@H]4N(C)Cc3ccc([N+](=O)[O-])s3)c(F)c2)C(=O)O1 [Compound No. 34, (S)-N-[[3-[3-Fluoro[4-[3-(1α,5α,6α)-6-[N-(5-nitro-2-thienylmethyl)-N-methyl]-amino]-3-azabicyclo-[3.1.0]hexane]phenyl]-2-oxo-5-oxazolidinyl]methyl]acetamide] | 1 µg/mL (≈ 1.99 µM) | 1 µg/mL (≈ 1.99 µM) | 1 µg/mL (≈ 1.99 µM) | 1 µg/mL (≈ 1.99 µM) | 1 µg/mL (≈ 1.99 µM) | 2 µg/mL (≈ 3.97 µM) | 4 µg/mL (≈ 7.94 µM) | 4 µg/mL (≈ 7.94 µM) |  | 1 µg/mL (≈ 1.99 µM) |  | 
CC(=O)NC[C@H]1CN(c2ccc(N3C[C@@H]4[C@@H](CN(C)C(=O)Cc5cccs5)[C@@H]4C3)c(F)c2)C(=O)O1 [Compound No. 38, (S)-N-[[3-[3-Fluoro[4-[3-(1α,5α,6α)-6-[N-(2-thiopheneacetyl)-N-methyl]amino-methyl]-3-azabicyclo-[3.1.0]hexane]phenyl]-2-oxo-5-oxazolidinyl]methyl]acetamide] | 4 µg/mL (≈ 7.99 µM) | 4 µg/mL (≈ 7.99 µM) | 4 µg/mL (≈ 7.99 µM) | 4 µg/mL (≈ 7.99 µM) | 4 µg/mL (≈ 7.99 µM) | 1 µg/mL (≈ 2 µM) | 1 µg/mL (≈ 2 µM) | 1 µg/mL (≈ 2 µM) |  | 4 µg/mL (≈ 7.99 µM) |  | 
CC(=O)NC[C@H]1CN(c2ccc(N3CC4C(CN(C)Cc5ccc([N+](=O)[O-])o5)C4C3)c(F)c2)C(=O)O1 (stereo partly drawn) [Compound No. 40, (S)-N-[[3-[3-Fluoro[4-[3-(1α,5α,6α)-6-[N-(5-nitro-2-furylmethyl)-N-methyl]amino-methyl]-3-azabicyclo-[3.1.0]hexane]phenyl]-2-oxo-5-oxazolidinyl]methyl]acetamide] | 2 µg/mL (≈ 3.99 µM) | 2 µg/mL (≈ 3.99 µM) | 2 µg/mL (≈ 3.99 µM) | 2 µg/mL (≈ 3.99 µM) | 4 µg/mL (≈ 7.98 µM) | 0.125 µg/mL (≈ 0.249 µM) |  | 2 µg/mL (≈ 3.99 µM) |  | 1 µg/mL (≈ 1.99 µM) |  | MIC50 (G +ve bacteria): 1 µg/mL (≈ 1.99 µM); MIC90 (G +ve bacteria): 2 µg/mL (≈ 3.99 µM); Geometric Mean of in vitro activity (MIC) (G +ve bacteria): 0.93 µg/mL; Geometric Mean of in vitro activity (MIC) (S. aureus): 1.83 µg/mL; MIC50 (S. aureus): 2 µg/mL (≈ 3.99 µM); MIC90 (S. aureus): 4 µg/mL (≈ 7.98 µM); Geometric Mean of in vitro activity (MIC) (E. faecalis): 2.38 µg/mL; MIC50 (E. faecalis): 2 µg/mL (≈ 3.99 µM); MIC90 (E. faecalis): 4 µg/mL (≈ 7.98 µM); Geometric Mean of in vitro activity (MIC) (S. pneumoniae): 0.71 µg/mL; MIC50 (S. pneumoniae): 1 µg/mL (≈ 1.99 µM); MIC90 (S. pneumoniae): 1 µg/mL (≈ 1.99 µM)
CC1(C)S[C@@H]2[C@H](NC(=O)Cc3ccccc3)C(=O)N2[C@H]1C(=O)O [Penicillin G, reference compound] |  |  |  |  |  |  |  |  |  |  |  | MIC50 (G +ve bacteria): 4 µg/mL (≈ 12 µM); MIC90 (G +ve bacteria): 32 µg/mL (≈ 95.7 µM); Geometric Mean of in vitro activity (MIC) (G +ve bacteria): 0.76 µg/mL; Geometric Mean of in vitro activity (MIC) (S. pneumoniae): 2.16 µg/mL; MIC50 (S. pneumoniae): 4 µg/mL (≈ 12 µM); MIC90 (S. pneumoniae): 32 µg/mL (≈ 95.7 µM)
